Measured values as given in patent US9957252B2, “Metalloenzyme inhibitor compounds as fungicides” (Dow AgroSciences LLC, priority 2014, dated 2018).
Read-outs that look alike come from different tables or passages of the source.

Assays:
Type in all cases: in vivo, Mycosphaerella graminicola on wheat plants (variety Yuma)
[1] = test system: standard laboratory SEPTTR isolate (SI SEPTTR); Mycosphaerella graminicola; Anamorph: Septoria tritici; experiment: Leaf blotch of wheat fungicidal activity, Type B assay (10% EC formulation in 0.1% Trycol 5941, track sprayer 200 L/ha), standard laboratory isolate; settings: Zymoseptoria tritici, 72 h, wheat seedlings (Yuma)
Experimental: (§1) Evaluation of Fungicidal Activity: Leaf Blotch of Wheat (Mycosphaerella graminicola; Anamorph: Septoria tritici; Bayer code SEPTTR):
(§2) For Type A assays, technical grades of the experimental fungicides in Table 4 below were dissolved in acetone, and then mixed with nine volumes of water containing 110 ppm Triton X-100. The fungicide solutions were applied onto wheat seedlings using an automated booth sprayer. For Type B assays, emulsifiable concentrate (EC) formulations of technical grades of experimental fungicides in Table 4 below were prepared at 10% (w/v), and then mixed with 150 volumes of 0.1% Trycol 5941. The fungicide solutions were applied onto wheat seedlings using an automated track sprayer at 200 L/ha. All sprayed plants were allowed to air dry prior to further handling.
(§3) Wheat plants (variety Yuma) were grown from seed in a greenhouse in 50% mineral soil/50% soil-less Metro mix until the first leaf was fully emerged, with 7-10 seedlings per pot. Prior to or after application of experimental fungicides, plants were inoculated either with spores of a standard laboratory SEPTTR isolate (SI SEPTTR) or with spores from a SEPTTR field isolate collected from Wellsbourne, England in 2012 (FI SEPTTR). After inoculation, the plants were kept for 3 days at 20° C. in 100% relative humidity (one day in a dark dew chamber followed by two days in a lighted dew chamber). Plants were then transferred to a 20° C. greenhouse for disease development. When disease symptoms were fully expressed on untreated plants, infection levels on treated plants were assessed on a scale of 0 to 100 percent disease severity. Percent disease control was calculated using the ratio of disease severity on treated plants relative to untreated plants.

[2] = Leaf blotch of wheat fungicidal activity, Type B assay (10% EC formulation in 0.1% Trycol 5941, track sprayer 200 L/ha), field isolate; settings: Zymoseptoria tritici, 72 h, field isolate (Wellsbourne, England 2012), wheat seedlings (Yuma)
Experimental: as §1, §2, §3

[3] = test system: standard laboratory SEPTTR isolate (SI SEPTTR); Mycosphaerella graminicola; Anamorph: Septoria tritici; experiment: Leaf blotch of wheat fungicidal activity, Type A assay (technical grade in acetone/water with Triton X-100, booth sprayer), standard laboratory isolate; settings: Zymoseptoria tritici, 24 h, 1 Day Protectant, wheat seedlings (Yuma), read-out: Disease control, SI SEPTTR Type A Assay (50 ppm) 1DP
Experimental: as §1, §2, §3

[4] = 3 Day Curative, read-out: Disease control, SI SEPTTR Type B Assay (100 g/ha) 3DC
[5] = 3 Day Protectant, read-out: Disease control, SI SEPTTR Type B Assay (100 g/ha) 3DP
[6] = 3 Day Curative, read-out: Disease control, FI SEPTTR Type B Assay (100 g/ha) 3DC
[7] = 3 Day Protectant, read-out: Disease control, FI SEPTTR Type B Assay (100 g/ha) 3DP

| Compound | pest or weed control at 100 g/ha [1, 4] [%] | pest or weed control at 100 g/ha [1, 5] [%] | pest or weed control at 100 g/ha [2, 6] [%] | pest or weed control at 100 g/ha [2, 7] [%] | pest or weed control at 50 ppm [3] [%] |
| --- | --- | --- | --- | --- | --- |
| CC(C)(C)C(O)(c1ccc(-c2ccc(OC(F)(F)F)cc2)cc1)c1cncnc1 (stereo not drawn) [Compound 1, 2,2-dimethyl-1-(pyrimidin-5-yl)-1-(4′-(trifluoromethoxy)-[1,1′-biphenyl]-4-yl)propan-1-ol] | 80 to 100 | 80 to 100 | 80 to 100 | 80 to 100 | 80 to 100 |
| CC(C)(C)C(O)(c1ccc(-c2ccc(OC(F)F)cc2)cc1)c1cncnc1 (stereo not drawn) [Compound 2] | 80 to 100 | 80 to 100 | 80 to 100 | 80 to 100 | 80 to 100 |
| CC(C)(C)C(O)(c1ccc(-c2ccc(C#N)cc2)cc1)c1cncnc1 (stereo not drawn) [Compound 3] | 60 to 79 | 60 to 79 | 80 to 100 | 60 to 79 | 80 to 100 |
| CC(C)(C)C(O)(c1cncnc1)c1ccc(-c2ccc(OC(F)(F)F)cc2)cc1Cl (stereo not drawn) [Compound 8] | 80 to 100 | 80 to 100 | 80 to 100 | 80 to 100 | 80 to 100 |
| CC(C)(C)C(O)(c1cncnc1)c1ccc(-c2ccc(C#N)cc2)cc1Cl (stereo not drawn) [Compound 9] | 80 to 100 | 60 to 79 | 80 to 100 | 80 to 100 | 80 to 100 |
| CC(C)(C)C(O)(c1cncnc1)c1ccc(-c2ccc(OC(F)F)cc2)cc1Cl (stereo not drawn) [Compound 10] | 80 to 100 | 80 to 100 | 80 to 100 | 60 to 79 | 80 to 100 |
| CC(C)(C)C(O)(c1ccc(-c2cccc(OC(F)(F)F)c2)cc1)c1cncnc1 (stereo not drawn) [Compound 11] | 60 to 79 | 80 to 100 | 60 to 79 | 60 to 79 | 80 to 100 |
| CC(C)(C)C(O)(c1ccc(-c2ccc(OCC(F)(F)F)cc2)cc1)c1cncnc1 (stereo not drawn) [Compound 14] | 80 to 100 | 80 to 100 | 80 to 100 | 60 to 79 | 80 to 100 |
| CC(C)(C)C(O)(c1cncnc1)c1ccc(-c2ccc(OC(F)(F)F)cc2)cc1F (stereo not drawn) [Compound 15] | 80 to 100 | 80 to 100 | 60 to 79 | 80 to 100 | – |
| CC(C)(C)C(O)(c1cncnc1)c1ccc(-c2ccc(OC(F)F)cc2)cc1F (stereo not drawn) [Compound 16] | 80 to 100 | 80 to 100 | 80 to 100 | 80 to 100 | – |
| CC(C)(C)C(O)(c1cncnc1)c1ccc(-c2ccc(C#N)cc2)cc1F (stereo not drawn) [Compound 17] | 80 to 100 | 80 to 100 | 80 to 100 | 80 to 100 | – |
| CC(C)(C)C(O)(c1ccc(-c2ccc(SC(F)(F)F)cc2)cc1)c1cncnc1 (stereo not drawn) [Compound 19] | 80 to 100 | 60 to 79 | 80 to 100 | 80 to 100 | – |
| CC(C)(C)C(O)(c1cncnc1)c1ccc(-c2ccc(Cl)cc2)cc1Cl (stereo not drawn) [Compound 22] | 80 to 100 | 80 to 100 | 80 to 100 | 80 to 100 | – |
| CC(C)(C)C(O)(c1cncnc1)c1ccc(-c2ccc(C(F)(F)F)nc2)cc1Cl (stereo not drawn) [Compound 23] | 80 to 100 | 80 to 100 | 80 to 100 | 80 to 100 | – |
| CC(C)(C)C(O)(c1cncnc1)c1ccc(-c2ccc(C(F)(F)F)nc2)cc1F (stereo not drawn) [Compound 24] | 80 to 100 | 80 to 100 | 80 to 100 | 80 to 100 | – |
| CC(C)(C)C(O)(c1cncnc1)c1ccc(-c2ccc(OCC(F)(F)F)cc2)cc1Cl (stereo not drawn) [Compound 25] | 80 to 100 | 60 to 79 | 80 to 100 | 80 to 100 | 80 to 100 |
| Cc1cc(-c2ccc(OC(F)(F)F)cc2)ccc1C(O)(c1cncnc1)C(C)(C)C (stereo not drawn) [Compound 34] | – | – | – | – | 80 to 100 |
| Cc1cc(-c2ccc(SC(F)(F)F)cc2)ccc1C(O)(c1cncnc1)C(C)(C)C (stereo not drawn) [Compound 35] | – | – | – | – | 80 to 100 |
| Cc1cc(-c2ccc(OC(F)F)cc2)ccc1C(O)(c1cncnc1)C(C)(C)C (stereo not drawn) [Compound 36] | – | – | – | – | 80 to 100 |
| Cc1cc(-c2ccc(C#N)cc2)ccc1C(O)(c1cncnc1)C(C)(C)C (stereo not drawn) [Compound 37] | – | – | – | – | 80 to 100 |
| Cc1cc(-c2ccc(C3(C#N)CC3)cc2)ccc1C(O)(c1cncnc1)C(C)(C)C (stereo not drawn) [Compound 38] | – | – | – | – | 80 to 100 |
| Cc1cc(-c2ccc(C(C)(C)C)cc2)ccc1C(O)(c1cncnc1)C(C)(C)C (stereo not drawn) [Compound 39] | – | – | – | – | 80 to 100 |
| Cc1cc(OC(F)(F)F)ccc1-c1ccc(C(O)(c2cncnc2)C(C)(C)C)c(C)c1 (stereo not drawn) [Compound 40] | – | – | – | – | 80 to 100 |

| Compound | pest or weed control at 100 g/ha [1, 4] [%] | pest or weed control at 100 g/ha [1, 5] [%] | pest or weed control at 100 g/ha [2, 6] [%] | pest or weed control at 100 g/ha [2, 7] [%] | pest or weed control at 50 ppm [3] [%] |
| --- | --- | --- | --- | --- | --- |
| Cc1cc(-c2ccc(OC(F)(F)F)cc2F)ccc1C(O)(c1cncnc1)C(C)(C)C (stereo not drawn) [Compound 41] | – | – | – | – | 80 to 100 |
| Cc1cc(-c2ccc(C(C)(C)C#N)cc2)ccc1C(O)(c1cncnc1)C(C)(C)C (stereo not drawn) [Compound 42] | – | – | – | – | 80 to 100 |
| Cc1cc(-c2ccc(CC#N)cc2)ccc1C(O)(c1cncnc1)C(C)(C)C (stereo not drawn) [Compound 43] | – | – | – | – | 40 to 59 |
| COc1cc(-c2ccc(OC(F)(F)F)cc2)ccc1C(O)(c1cncnc1)C(C)(C)C (stereo not drawn) [Compound 44] | – | – | – | – | 80 to 100 |
| COc1cc(-c2ccc(OC(F)F)cc2)ccc1C(O)(c1cncnc1)C(C)(C)C (stereo not drawn) [Compound 45] | – | – | – | – | 80 to 100 |
| COc1cc(-c2ccc(SC(F)(F)F)cc2)ccc1C(O)(c1cncnc1)C(C)(C)C (stereo not drawn) [Compound 46] | – | – | – | – | 80 to 100 |
| COc1cc(-c2ccc(C#N)cc2)ccc1C(O)(c1cncnc1)C(C)(C)C (stereo not drawn) [Compound 47] | – | – | – | – | 80 to 100 |
| COc1cc(-c2ccc(CC#N)cc2)ccc1C(O)(c1cncnc1)C(C)(C)C (stereo not drawn) [Compound 48] | – | – | – | – | 80 to 100 |
| COc1cc(-c2ccc(C3(C#N)CC3)cc2)ccc1C(O)(c1cncnc1)C(C)(C)C (stereo not drawn) [Compound 49] | – | – | – | – | 80 to 100 |
| COc1cc(-c2ccc(C(C)(C)C)cc2)ccc1C(O)(c1cncnc1)C(C)(C)C (stereo not drawn) [Compound 51] | – | – | – | – | 80 to 100 |
| COc1cc(-c2ccc(OC(F)(F)F)cc2C)ccc1C(O)(c1cncnc1)C(C)(C)C (stereo not drawn) [Compound 52] | – | – | – | – | 60 to 79 |
| COc1cc(-c2ccc(OC(F)(F)F)cc2F)ccc1C(O)(c1cncnc1)C(C)(C)C (stereo not drawn) [Compound 53] | – | – | – | – | 80 to 100 |
| CC(C)(C)C(O)(c1ccc(-c2ccc(OC(F)(F)F)cc2)cc1)c1cccnc1 (stereo not drawn) [Compound 54] | – | – | – | – | 80 to 100 |
| CC(C)(C)C(O)(c1ccc(-c2ccc(SC(F)(F)F)cc2)cc1)c1cccnc1 (stereo not drawn) [Compound 55] | – | – | – | – | 80 to 100 |
| CC(C)(C)C(O)(c1ccc(-c2ccc(OC(F)F)cc2)cc1)c1cccnc1 (stereo not drawn) [Compound 56] | – | – | – | – | 80 to 100 |
| CC(C)(C)C(O)(c1ccc(-c2ccc(OCC(F)(F)F)cc2)cc1)c1cccnc1 (stereo not drawn) [Compound 57] | – | – | – | – | 80 to 100 |
| CC(C)(C)C(O)(c1ccc(-c2ccc(C#N)cc2)cc1)c1cccnc1 (stereo not drawn) [Compound 58] | – | – | – | – | 80 to 100 |
| CC(C)(C)C(O)(c1ccc(-c2ccc(CC#N)cc2)cc1)c1cccnc1 (stereo not drawn) [Compound 59] | – | – | – | – | 80 to 100 |
| CC(C)(C)C(O)(c1ccc(-c2ccc(C3(C#N)CC3)cc2)cc1)c1cccnc1 (stereo not drawn) [Compound 60] | – | – | – | – | 80 to 100 |
| CC(C)(C#N)c1ccc(-c2ccc(C(O)(c3cccnc3)C(C)(C)C)cc2)cc1 (stereo not drawn) [Compound 61] | – | – | – | – | 80 to 100 |
| CC(C)(C)c1ccc(-c2ccc(C(O)(c3cccnc3)C(C)(C)C)cc2)cc1 (stereo not drawn) [Compound 62] | – | – | – | – | 80 to 100 |
| Cc1cc(OC(F)(F)F)ccc1-c1ccc(C(O)(c2cccnc2)C(C)(C)C)cc1 (stereo not drawn) [Compound 63] | – | – | – | – | 80 to 100 |
